Data reported in patent US10934297B2, “5-heteroaryl substituted indazole-3-carboxamides and preparation and use thereof” (Samumed, LLC, priority 2018, dated 2021).
Where two headings read alike, the source gives them in different places.

How the values were obtained:
GSK3β kinase = GSK3β kinase (Homo sapiens (Human), UniProt P49841); test: GSK3β kinase assay (Ser/Thr 09 peptide Z-lyte FRET); type: biochemical; details: read-out: EC50 (method: IC50)
Method in brief: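 Non-radioactive Z-lyte FRET read-out, kinase activity expressed as coumarin/fluorescein emission ratio. Compounds incubated with the reaction mixture one hour at room temperature in duplicate, then development buffer added for another hour. IC50 from non-linear regression of dose-response curves.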

[1] = test system: SW480 colon carcinoma cells; test: Cell viability assay (CellTiter-Glo) in SW480 colon carcinoma cells; type: cell-based, human; details: four days
Method in brief: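 SW480 cells stably carrying an Sp5-promoter luciferase reporter were plated at 2,000 cells/well in DMEM with 1% FBS and treated with compound for four days at 37 °C. Viability was read as ATP luminescence with CellTiter-Glo after about 12 min; DMSO-treated wells served as controls.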

IL-6 = IL-6 inhibition in LPS-stimulated human peripheral blood mononuclear cells (HTRF); type: cell-based; details: for EC50: huPBMCs, LPS 50 ng/mL, 22 hours, IL-6 HTRF
Method in brief: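 Fresh human PBMCs at 1×10e6 cells/mL in RPMI/1% FBS were stimulated with 50 ng/mL E. coli 0111:B4 LPS added 2 h after compound, then incubated 22 h at 37° C. Secreted IL-6 was measured by HTRF (665/620 nm ratio) after 3 h at room temperature. EC50 was taken from activity normalized to DMSO-treated cells.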

DYRK1A kinase = DYRK1A kinase (Homo sapiens (Human), UniProt Q13627); test: DYRK1A kinase assay (Ser/Thr 18 peptide Z-lyte FRET); type: biochemical; details: read-out: EC50 (method: IC50)
Method in brief: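 This Z-lyte FRET assay reads the coumarin/fluorescein emission ratio. Compounds were incubated with the reaction mixture for 1 h at room temperature, followed by development reagent for a further 1 h at room temperature, in duplicate.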

[2] = test system: primary human fibroblasts derived from IPF patients (LL29 cells); test: Inhibition of the fibrotic process: αSMA staining in TGF-β1 treated LL29 fibroblasts; type: cell-based; details: LL29 cells, TGF-β1 20 ng/mL, 4 days, % αSMA positive cells
Method in brief: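 LL29 fibroblasts from IPF patients, in F12 medium with 1% FBS, treated with TGF-β1 plus compound; TGF-β1 with DMSO as positive control, DMSO alone as negative control. After 4 days' incubation, SYTOX green nucleic acid stain added at 1 μM final, 30 min at room temperature.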

[3] = test system: Wnt activity (Sp5-Luc reporter in SW480 cells); test: Screening assay for Wnt activity: Sp5-Luc reporter gene assay in SW480 colon carcinoma cells; type: cell-based, human; details: 36 to 48 hours
Method in brief: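 SW480 colon carcinoma cells stably carrying a lentiviral luciferase reporter driven by an Sp5 promoter with eight TCF/LEF sites, plated at 4,000 cells/well in DMEM with 1% FBS. Compound exposure for 36–48 h at 37 °C, then luminescence read. Signals normalized to DMSO; EC50 from four-parameter nonlinear fit.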

Chain of GSK3β kinase (P49841 whole entry): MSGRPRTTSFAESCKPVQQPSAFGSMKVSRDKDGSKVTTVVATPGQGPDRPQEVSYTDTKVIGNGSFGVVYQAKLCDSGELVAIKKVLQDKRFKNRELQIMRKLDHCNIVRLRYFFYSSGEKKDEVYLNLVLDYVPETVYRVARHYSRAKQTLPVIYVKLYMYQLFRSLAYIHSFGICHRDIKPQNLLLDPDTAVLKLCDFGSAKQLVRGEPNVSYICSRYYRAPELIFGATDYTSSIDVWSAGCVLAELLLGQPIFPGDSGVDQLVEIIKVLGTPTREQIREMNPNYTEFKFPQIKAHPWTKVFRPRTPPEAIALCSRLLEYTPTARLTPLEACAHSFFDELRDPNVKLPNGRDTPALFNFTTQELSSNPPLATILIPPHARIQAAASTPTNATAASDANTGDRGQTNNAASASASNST

| Compound | IC50 (GSK3β kinase) [nM] | EC50 ([1]; Homo sapiens, 96 h) [nM] | EC50 (IL-6; Homo sapiens, PBMC) [nM] | IC50 (DYRK1A kinase) [nM] | EC50 ([3]; Homo sapiens) [nM] | IC50 (GSK3β kinase; recombinant GSK3β, 46 μM ATP, one hour, column head prints EC50) [nM] | EC50 [1] [nM] | EC50 (IL-6) [nM] | IC50 (DYRK1A kinase; recombinant DYRK1A, 30 μM ATP, one hour, column head prints EC50) [nM] | EC50 [3] [nM] | EC50 ([2]; Homo sapiens, Fibroblast, 96 h) [nM] | inhibition at 10 µM (IL-6; Homo sapiens, PBMC, read-out: percent inhibition at 10 μM) [%] | EC50 [2] [nM] |
| --- | --- | --- | --- | --- | --- | --- | --- | --- | --- | --- | --- | --- | --- |
| O=C(Nc1ccc(OC(F)F)cc1)c1n[nH]c2ccc(-c3cnn(C4CCN(CCF)CC4)c3)cc12 [Compound 60, N-(4-(Difluoromethoxy)phenyl)-5-(1-(1-(2-fluoroethyl)piperidin-4-yl)-1H-pyrazol-4-yl)-1H-indazole-3-carboxamide] | > 10000 | 3730 | 8980 | 1500 | 3850 | – | – | – | – | – | 1280 | – | – |
| O=C(Nc1ccc(OC(F)F)nc1)c1n[nH]c2ccc(-c3cnn(CCN4CCOCC4)c3)cc12 [Compound 90, N-(6-(Difluoromethoxy)pyridin-3-yl)-5-(1-(2-morpholinoethyl)-1H-pyrazol-4-yl)-1H-indazole-3-carboxamide] | 403 | 7390 | > 10000 | 329 | 2130 | – | – | – | – | – | > 10000 | 37 | – |
| CC(C)NC(=O)c1n[nH]c2ccc(-c3cnn(C4CCNCC4)c3)cc12 [Compound 7, N-Isopropyl-5-(1-(piperidin-4-yl)-1H-pyrazol-4-yl)-1H-indazole-3-carboxamide] | 255 | 5600 | 2010 | 55 | 2600 | – | – | – | – | – | > 10000 | – | – |
| O=C(Nc1ccc(CN2CCCC2)cc1)c1n[nH]c2ccc(-c3cnn(C4CC4)c3)cc12 [Compound 72, 5-(1-Cyclopropyl-1H-pyrazol-4-yl)-N-(4-(pyrrolidin-1-ylmethyl)phenyl)-1H-indazole-3-carboxamide] | 40 | 228 | 1200 | 6 | 545 | – | – | – | – | – | 242 | – | – |
| CN1CCC(Nc2ccc(NC(=O)c3n[nH]c4cc(F)c(-c5cnn(C)c5)cc34)cc2)CC1 [Compound 83, 6-Fluoro-5-(1-methyl-1H-pyrazol-4-yl)-N-(4-((1-methylpiperidin-4-yl)amino)phenyl)-1H-indazole-3-carboxamide] | 74 | 220 | 1240 | 2 | 275 | – | – | – | – | – | 250 | – | – |
| N-(6-(Difluoromethoxy)pyridin-3-yl)-5-(1-(piperidin-4-yl)-1H-pyrazol-4-yl)-1H-indazole-3-carboxamide [Compound 87] | – | – | – | – | – | 182 | 554 | 3850 | 8 | 216 | – | – | 672 |
| Cn1cc(-c2cc3c(C(=O)NC4CCC(F)(F)CC4)n[nH]c3cc2F)cn1 [Compound 15, N-(4,4-Difluorocyclohexyl)-6-fluoro-5-(1-methyl-1H-pyrazol-4-yl)-1H-indazole-3-carboxamide] | 58 | 2600 | 3550 | 36 | > 10000 | – | – | – | – | – | 3320 | – | – |

The remaining compounds from weak to strong by IC50 (GSK3β kinase), led by results:

| IC50 (GSK3β kinase) [nM] | EC50 ([1]; Homo sapiens, 96 h) [nM] | EC50 (IL-6; Homo sapiens, PBMC) [nM] | IC50 (DYRK1A kinase) [nM] | EC50 ([3]; Homo sapiens) [nM] | IC50 (GSK3β kinase; recombinant GSK3β, 46 μM ATP, one hour, column head prints EC50) [nM] | EC50 [1] [nM] | EC50 (IL-6) [nM] | IC50 (DYRK1A kinase; recombinant DYRK1A, 30 μM ATP, one hour, column head prints EC50) [nM] | EC50 [3] [nM] | Compound | EC50 ([2]; Homo sapiens, Fibroblast, 96 h) [nM] | inhibition at 10 µM (IL-6; Homo sapiens, PBMC, read-out: percent inhibition at 10 μM) [%] | EC50 [2] [nM] |
| --- | --- | --- | --- | --- | --- | --- | --- | --- | --- | --- | --- | --- | --- |
| 39 | 1100 | 1160 | 3 | 542 | – | – | – | – | – | Cn1cc(-c2cc3c(C(=O)Nc4ccc(CN5CCC(F)CC5)cc4)n[nH]c3cc2F)cn1 [Compound 75, 6-Fluoro-N-(4-((4-fluoropiperidin-1-yl)methyl)phenyl)-5-(1-methyl-1H-pyrazol-4-yl)-1H-indazole-3-carboxamide] | 159 | – | – |
| 38 | 414 | 2050 | 1 | 315 | – | – | – | – | – | Cn1cc(-c2cc3c(C(=O)Nc4ccc(OCCN5CCCC5)cc4)n[nH]c3cc2F)cn1 [Compound 155, 6-Fluoro-5-(1-methyl-1H-pyrazol-4-yl)-N-(4-(2-(pyrrolidin-1-yl)ethoxy)phenyl)-1H-indazole-3-carboxamide] | 167 | – | – |
| 36 | > 10000 | 3150 | 24 | 267 | – | – | – | – | – | CC(C)CN1CC[C@H](NC(=O)c2n[nH]c3ccc(-c4cnn(C)c4)cc23)[C@@H](F)C1 [Compound 33, N-((3 S,4S)-3-Fluoro-1-isobutylpiperidin-4-yl)-5-(1-methyl-1H-pyrazol-4-yl)-1H-indazole-3-carboxamide] | 43 | – | – |
| 35 | 139 | 1060 | 1 | 115 | – | – | – | – | – | Cc1c(-c2cc3c(C(=O)Nc4ccc(OC5CCN(C)CC5)cc4)n[nH]c3cc2F)cnn1C [Compound 81, 5-(1,5-Dimethyl-1H-pyrazol-4-yl)-6-fluoro-N-(4-((1-methylpiperidin-4-yl)oxy)phenyl)-1H-indazole-3-carboxamide] | 341 | – | – |
| 25 | 518 | 1380 | 5 | 512 | – | – | – | – | – | CCn1cc(-c2ccc3[nH]nc(C(=O)Nc4ccc(CN5CCCC5)cc4)c3c2)cn1 [Compound 70, 5-(1-Ethyl-1H-pyrazol-4-yl)-N-(4-(pyrrolidin-1-ylmethyl)phenyl)-1H-indazole-3-carboxamide] | 126 | – | – |
| 22 | 511 | 3360 | 31 | 565 | – | – | – | – | – | Cn1cc(-c2ccc3[nH]nc(C(=O)NCC4CCC(F)(F)CC4)c3c2)cn1 [Compound 8, N-((4,4-Difluorocyclohexyl)methyl)-5-(1-methyl-1H-pyrazol-4-yl)-1H-indazole-3-carboxamide] | 146 | – | – |
| 20 | 191 | 1320 | 2 | 308 | – | – | – | – | – | Cn1cc(-c2cc3c(C(=O)Nc4ccc(CN5CCCC5)cc4)n[nH]c3cc2F)cn1 [Compound 69, 6-Fluoro-5-(1-methyl-1H-pyrazol-4-yl)-N-(4-(pyrrolidin-1-ylmethyl)phenyl)-1H-indazole-3-carboxamide] | 328 | – | – |
| 14 | 849 | 546 | 5 | 747 | – | – | – | – | – | Cn1cc(-c2ccc3[nH]nc(C(=O)NC4CCN(CC(C)(C)F)CC4)c3c2)cn1 [Compound 37, N-(1-(2-Fluoro-2-methylpropyl)piperidin-4-yl)-5-(1-methyl-1H-pyrazol-4-yl)-1H-indazole-3-carboxamide] | 118 | – | – |
| 9 | 1080 | 903 | 16 | 3400 | – | – | – | – | – | Cn1cc(-c2cc3c(C(=O)N[C@@H]4CCCC[C@H]4F)n[nH]c3cc2F)cn1 [Compound 10, 6-Fluoro-N-((1R,2R)-2-fluorocyclohexyl)-5-(1-methyl-1H-pyrazol-4-yl)-1H-indazole-3-carboxamide] | 331 | – | – |
